Experimental data published in patent US10004688B2, “Liposomal mupirocin” (priority 2014, dated 2018).
≈ marks a conversion by molar mass, not a printed value.

Key:
[1] = test system: serum protein; details: cited from earlier work
[2] = test system: Group A streptococcus (GAS); assay: Mice necrotizing fasciitis model; type: in vivo, Female BALB/c mice
Method: Necrotizing fasciitis model was performed based on a published method [Hidalgo-grass, C. et al. Mechanisms of disease Effect of a bacterial pheromone peptide on host chemokine degradation in group A streptococcal necrotising soft-tissue infections. 363, (2004)]. Specifically the working protocol included:
Female BALB/c mice, 10 g weight and at the age of 3-4 weeks were selected.
1st Day: Bacteria were seeded on blood-agar plates and incubated at 37° C. THY medium was prepared, autoclaved and kept at room temperature.
2nd Day: plates were taken from the incubator and placed at room temperature.
4th Day: bacteria were transferred from the plates to 5 ml THY tube (warmed in the incubator).
5th Day: 2 ml bacteria were transferred from the 5 ml THY tube to 50 ml THY tube. Bacteria were grown to early logarithmic phase (O.D600=0.3-0.4), washed with PBS and suspended in PBS to O.D600=0.8 which correlates to 10^8 bacteria in injected volume of 100 μl. The obtained bacteria volume was divided to vials according to the number of mice in the study. Each dilution was seeded on blood agar plates and counting colonies on the day after.
On the 5th day, mice hair was removed from the center of mice back and bacteria were injected subcutaneously.
Disease condition was followed according to the Table 2A below.
Specifically, Group A streptococcus (GAS) injection (0.75×10^8 CFU) was administered to all study groups. The drug was administered by IV injection of 100 μl formulation. Eachliposomal mupirocin dose was 45 mg/kg. Each free mupirocin dose was 50 mg/kg.

[3] = Mupirocin solubility in buffers and solubilizer solutions; type: physicochemical
Method: Liposomes were prepared using the calcium acetate (CA) gradient method [Clerc S, Barenholz Y. 1995. Loading of amphipathic weak acids into liposomes in response to transmembrane calcium acetate gradients. Biochim Biophys Acta 1240:257-265]. Specifically, lipids in a mole ratio of 55:40:5 HSPC: cholesterol: mPEG DSPE were mechanically hydrated by stirring at 65° C. with 200 mM calcium acetate pH 5.5, at a weight ratio of 1:9. The liposomal dispersion was downsized by stepwise extrusion by the Northern Lipids (Burnaby, BC, Canada) extruder using polycarbonate filters starting with 3 times extrusion through a 400 nm pore size membrane, then 3 times through a 100 nm pore size membrane, and finally 10 times through a 50 nm pore size membrane. Liposomes were then dialyzed using a Cellu Sep regenerated cellulose membrane (Membrane Filtration Products, USA), against a 10% sucrose solution. In the case of HPCD-containing liposomes, lipids were hydrated by 200 mM calcium acetate pH 5.5 containing 15% (w/w) HPCD. Control HPCD liposomes were prepared by hydrating lipids with 15% (w/w) HPCD in phosphate buffer 200 mM pH 6.3. All other preparation steps (downsizing and dialysis) were the same as described above. Remote loading was performed by incubating at 65° C. for 10 min a solution of the drug with the liposome dispersion at a volume ratio of 1:1. Liposomes used for loading were freshly prepared and used within one week. Drug loading solutions were prepared in 200 mM phosphate buffer pH 6.3. High mupirocin concentrations in phosphate buffer pH 6.3 (28 mM) were achieved by vigorous stirring and 10 min sonication in a bath sonicator. Loading was also tested from 1 to 10% (w/w) HPCD solutions in phosphate buffer pH 6.3. High mupirocin concentration (28 mM) in 1% HPCD solution was achieved by vigorous stirring and sonication as described for phosphate buffer. Mupirocin solutions in higher HPCD concentrations (2.5-10%) were prepared by stirring only. Loading was also performed from propylene glycol (PG) and from polyethylene glycol (PEG) 400 solutions. In these cases, a stock solution of 100 mM mupirocin was prepared and diluted to the desired concentration with 200 mM phosphate buffer pH 6.3.
Mupirocin is not freely soluble in aqueous medium. Being a weak acid, its solubility increases with pH. Mupirocin was soluble in phosphate buffer 200 mM pH 6.3 up to a concentration of 15 mM. […] However, high concentrations (≥28 mM) in 1% HPCD required 10 min sonication in order to achieve a clear solution. It should be noted that the chromatographic profile of mupirocin in the different solutions tested was similar to that of a standard solution.

[4] = test system: gram-positive bacteria, including the methicillin-resistant Staphylococcus aureus (MRSA) and Streptococcus pneumoniae; details: gram-positive bacteria incl. MRSA and Streptococcus pneumoniae; cited from earlier work
[5] = literature data, free mupirocin; cited from earlier work
[6] = test system: Neisseria gonorrhoeae; details: cited from earlier work
[7] = group 2: free drug 50 mg/kg IV 3 h before and 3 and 24 h after GAS injection (150 mg/kg/day), 24 h after challenge
[8] = group 2: free drug 50 mg/kg IV 3 h before and 3 and 24 h after GAS injection (150 mg/kg/day), 48 h after challenge
[9] = group 2: free drug 50 mg/kg IV 3 h before and 3 and 24 h after GAS injection (150 mg/kg/day), 72 h after challenge
[10] = group 2: free drug 50 mg/kg IV 3 h before and 3 and 24 h after GAS injection (150 mg/kg/day), 96 h after challenge

C/C(=C\C(=O)OCCCCCCCCC(=O)O)C[C@@H]1OC[C@H](C[C@@H]2O[C@H]2[C@@H](C)[C@H](C)O)[C@@H](O)[C@H]1O [Mupirocin, 9-[(E)-4-[(2S,3R,4R,5S)-3,4-dihydroxy-5-[[(2S,3S)-3-[(2S,3S)-3-hydroxybutan-2-yl]oxiran-2-yl]methyl]oxan-2-yl]-3-methylbut-2-enoyl]oxynonanoic acid]
protein binding affinity [1]: 96.5%
% weight change ([2]; group 2: free drug 50 mg/kg IV 3 h before and 3 and 24 h after GAS injection (150 mg/kg/day), 24 h after bacteria challenge): −7%
Average mice weight [2, 7]: 12.5 g
Description of mice movement [2, 7]: Regular
Eyes appearance [2, 7]: Open eyes
Hair appearance [2, 7]: Rough hair
Mice mortality [2, 7]: 0
Wound appearance [2, 7]: No wound
Average mice weight [2, 8]: 11.7 g
Description of mice movement [2, 8]: Regular
Eyes appearance [2, 8]: Open eyes
Hair appearance [2, 8]: Rough hair
Mice mortality [2, 8]: 0
Average mice weight [2, 9]: 12.3 g
Description of mice movement [2, 9]: Regular
Eyes appearance [2, 9]: Open eyes
Mice mortality [2, 9]: 0
Average mice weight [2, 10]: 12.7 g
Description of mice movement [2, 10]: Regular
Eyes appearance [2, 10]: Open eyes
Mice mortality [2, 10]: 0
mortality ([2]; mice, GAS s.c. challenge, IV treatment): did not show mortality
development of disease / symptoms ([2]; mice, GAS s.c. challenge, IV treatment, listed as free drug): developed the disease 24 h after bacteria challenge
development of disease / symptoms ([2]; mice, GAS s.c. challenge, IV treatment, listed as free mupirocin): developed the disease symptoms
solubility ([3]; HPCD solution in phosphate buffer, aqueous with cosolvent or surfactant or cyclodextrin, thermodynamic from solid, HPCD solutions of 1-10% w/w in phosphate buffer pH 6.3): > 34 mM
solubility ([3]; PEG 400, organic solvent or mixture): ~100 mM
solubility ([3]; aqueous buffer, thermodynamic from solid, phosphate buffer 200 mM pH 6.3, without vigorous stirring and sonication): ≤ 15 mM
solubility at 10 min ([3]; aqueous buffer, thermodynamic from solid, phosphate buffer pH 6.3, after vigorous stirring and sonication): ~28 mM (≈ 14 mg/mL)
solubility ([3]; calcium acetate solution, aqueous buffer, calcium acetate 200 mM pH 5.5): < 2000 µg/mL
solubility ([3]; organic solvent or mixture, PG (propylene glycol)): ~100 mM
increase of solubility ([3]; pH 5.5): not more than 10 fold
activity in vitro [4]: active in vitro
elimination half-life [5]: 20 to 40 min
MIC [6]: 0.05 µg/mL (≈ 0.0999 µM)
